# Where no end group is shown, it is not given here.
# Legend:
# [1] = test system: low grade prostate cancer (Gleason grade 6); assay: clinical study: hemi-prostate multifocal cancer with Gleason upgrade (Example 1); assay type: in vivo, human; details: for % Imp. (hemi-prostate multifocal cancer with Gleason upgrade): vs active surveillance control
# Experimental: (§1) In a series of clinical studies a total of 146 men with low grade prostate cancer (Gleason grade 6) were treated in the following manner. Patients were randomized and treated with a transrectal intraprostatic single injection of a composition comprising 2.5 mg FT (n=49), or a composition comprising 15 mg FT (n=48), or were subject to control active surveillance (n=49). After the first follow-up biopsy at 45 days post-randomization, 18 patients in the control active surveillance group crossed over to a single administration of a composition comprising 2.5 mg FT. Patients were followed for 5 years including biopsies at baseline, 45 days, 18, 36, and 60 months, and urological evaluations with PSA every 6 months. Patients with Gleason grade increase or who elected surgical or radiotherapeutic intervention exited the study and were still included in the data analysis. Percentage of normal biopsies in the baseline focus quadrant and median tumor grade and volume were assessed; progression was measured by clinical and pathological outcomes including Gleason grade in the entire prostate sampled as well as for the treated prostate lobe. Interventions associated with Gleason grade increase as well as total incidence for any intervention was assessed.
# [2] = test system: low grade prostate cancer (Gleason grade 6); assay: clinical study: hemi-prostate multifocal cancer with increase in Gleason primary pattern (Example 2); assay type: in vivo, human; details: for % Imp. (hemi-prostate multifocal cancer with increase in Gleason primary pattern): vs active surveillance control
# Experimental: as §1
# [3] = test system: low grade prostate cancer (Gleason grade 6); assay: clinical study: cancer treatment with new multifocal with increased Gleason grade in the hemi-prostate (Example 3); assay type: in vivo, human; details: for % Imp. (cancer treatment with new multifocal with increased Gleason grade in the hemi-prostate): vs active surveillance control
# Experimental: as §1
# This example evaluated the percentage of patients who had conventional cancer treatment (e.g., surgery, radiotherapy, and/or chemotherapy), and who and who had multifocal prostate cancer in the lobe (or hemi-prostate) in which the foci were initially treated with Gleason upgrade (cancer treatment with new multifocal with increased Gleason grade in the hemi-prostate).
# [4] = test system: low grade prostate cancer (Gleason grade 6); assay: clinical study: cancer treatment with new multifocal and an increase in Gleason grade primary pattern in the hemi-prostate (Example 4); assay type: in vivo, human; details: for % Imp. (cancer treatment with new multifocal and an increase in Gleason grade primary pattern in the hemi-prostate): vs active surveillance control
# Experimental: as §1
# This example evaluated the percentage of patients having conventional cancer treatment (surgery, radiotherapy, or chemotherapy), and having multifocal prostate cancer in the lobe (or hemi-prostate) in which the foci were initially treated with Gleason primary pattern (cancer treatment with new multifocal and an increase in Gleason grade primary pattern in the hemi-prostate).
# [5] = test system: prostate glandular epithelial cells; assay: tissue culture genetic array, in vitro; assay type: cell-based
# Source text: Use of FT is a preferred embodiment. FT is a new molecular entity which in vitro stimulates caspase pathways (activation of caspases 7, 8, and 10, caspase recruitment domains 6, 11, and 14, and DIABLO), tumor necrosis factor pathways (activation of TNF1, TNFSF6, TNFSF8, TNFSF9, CD70 ligands, and TNFRSF19L, TNFRSF25, TRAF2, TRAF3, TRAF4, TRAF6 receptors), and BCL pathways (activation of BIK, HRK, BCL2L10 and BCL3) in prostate glandular epithelial cells, based on tissue culture genetic array data. […] The apoptotic process leads to typical ultrastructural progressive changes of membranous disruption and swelling, progressively deepening nuclear invaginations with eventual membranous bleb formations and cell death and fragmentation into apoptotic bodies. Histologically, typical apoptotic changes with positive immunohistochemical staining of markers for apoptosis are found throughout the injected areas for up to several weeks after treatment.
# [6] = FT 2.5 mg, single transrectal intraprostatic injection, <= 18 mos from treatment
# [7] = FT 2.5 mg, single transrectal intraprostatic injection, <= 36 mos from treatment
# [8] = FT 2.5 mg, single transrectal intraprostatic injection, <= 48 mos from treatment
# [9] = FT 15 mg, single transrectal intraprostatic injection, <= 18 mos from treatment
# [10] = FT 15 mg, single transrectal intraprostatic injection, <= 36 mos from treatment
# [11] = FT 15 mg, single transrectal intraprostatic injection, <= 48 mos from treatment
# [12] = Pooled FT (2.5 mg and 15 mg), <= 18 mos from treatment
# [13] = Pooled FT (2.5 mg and 15 mg), <= 36 mos from treatment
# [14] = Pooled FT (2.5 mg and 15 mg), <= 48 mos from treatment
substance,measurement,setting,value
Ile-Asp-Gln-Gln-Val-Leu-Ser-Arg-Ile-Lys-Leu-Glu-Ile-Lys-Arg-Cys-Leu (IDQQVLSRIKLEIKRCL; also: trifluoroacetate salt) [FT],percentage of patients with hemi-prostate multifocal cancer with Gleason upgrade,[1]; [6],8.6%
same,percentage of patients with hemi-prostate multifocal cancer with Gleason upgrade,[1]; [7],16.7%
same,percentage of patients with hemi-prostate multifocal cancer with Gleason upgrade,[1]; [8],42.9%
same,% Imp. (hemi-prostate multifocal cancer with Gleason upgrade),"[1]; FT 2.5 mg, <= 18 mos",54.26%
same,% Imp. (hemi-prostate multifocal cancer with Gleason upgrade),"[1]; FT 2.5 mg, <= 36 mos",53.2%
same,% Imp. (hemi-prostate multifocal cancer with Gleason upgrade),"[1]; FT 2.5 mg, <= 48 mos",5.7%
same,percentage of patients with hemi-prostate multifocal cancer with Gleason upgrade,[1]; [9],5.7%
same,percentage of patients with hemi-prostate multifocal cancer with Gleason upgrade,[1]; [10],9.1%
same,percentage of patients with hemi-prostate multifocal cancer with Gleason upgrade,[1]; [11],13.3%
same,% Imp. (hemi-prostate multifocal cancer with Gleason upgrade),"[1]; FT 15 mg, <= 18 mos",69.7%
same,% Imp. (hemi-prostate multifocal cancer with Gleason upgrade),"[1]; FT 15 mg, <= 36 mos",74.5%
same,% Imp. (hemi-prostate multifocal cancer with Gleason upgrade),"[1]; FT 15 mg, <= 48 mos",70.8%
same,percentage of patients with hemi-prostate multifocal cancer with Gleason upgrade,[1]; [12],7.1%
same,percentage of patients with hemi-prostate multifocal cancer with Gleason upgrade,[1]; [13],13.0%
same,percentage of patients with hemi-prostate multifocal cancer with Gleason upgrade,[1]; [14],27.6%
same,% Imp. (hemi-prostate multifocal cancer with Gleason upgrade),"[1]; Pooled FT, <= 18 mos",62.2%
same,% Imp. (hemi-prostate multifocal cancer with Gleason upgrade),"[1]; Pooled FT, <= 36 mos",63.6%
same,% Imp. (hemi-prostate multifocal cancer with Gleason upgrade),"[1]; Pooled FT, <= 48 mos",39.3%
same,percentage of patients with hemi-prostate multifocal cancer with increase in Gleason primary pattern,[2]; [6],0%
same,percentage of patients with hemi-prostate multifocal cancer with increase in Gleason primary pattern,[2]; [7],0%
same,percentage of patients with hemi-prostate multifocal cancer with increase in Gleason primary pattern,[2]; [8],0%
same,% Imp. (hemi-prostate multifocal cancer with increase in Gleason primary pattern),"[2]; FT 2.5 mg, <= 18 mos",100%
same,% Imp. (hemi-prostate multifocal cancer with increase in Gleason primary pattern),"[2]; FT 2.5 mg, <= 36 mos",100%
same,% Imp. (hemi-prostate multifocal cancer with increase in Gleason primary pattern),"[2]; FT 2.5 mg, <= 48 mos",100%
same,percentage of patients with hemi-prostate multifocal cancer with increase in Gleason primary pattern,[2]; [9],2.9%
same,percentage of patients with hemi-prostate multifocal cancer with increase in Gleason primary pattern,[2]; [10],4.5%
same,percentage of patients with hemi-prostate multifocal cancer with increase in Gleason primary pattern,[2]; [11],6.7%
same,% Imp. (hemi-prostate multifocal cancer with increase in Gleason primary pattern),"[2]; FT 15 mg, <= 18 mos",76.8%
same,% Imp. (hemi-prostate multifocal cancer with increase in Gleason primary pattern),"[2]; FT 15 mg, <= 36 mos",79%
same,% Imp. (hemi-prostate multifocal cancer with increase in Gleason primary pattern),"[2]; FT 15 mg, <= 48 mos",75.5%
same,percentage of patients with hemi-prostate multifocal cancer with increase in Gleason primary pattern,[2]; [12],1.4%
same,percentage of patients with hemi-prostate multifocal cancer with increase in Gleason primary pattern,[2]; [13],2.2%
same,percentage of patients with hemi-prostate multifocal cancer with increase in Gleason primary pattern,[2]; [14],3.4%
same,% Imp. (hemi-prostate multifocal cancer with increase in Gleason primary pattern),"[2]; Pooled FT, <= 18 mos",88.8%
same,% Imp. (hemi-prostate multifocal cancer with increase in Gleason primary pattern),"[2]; Pooled FT, <= 36 mos",89.7%
same,% Imp. (hemi-prostate multifocal cancer with increase in Gleason primary pattern),"[2]; Pooled FT, <= 48 mos",87.5%
same,percentage of patients with cancer treatment with new multifocal with increased Gleason grade in the hemi-prostate,[3]; [6],4.9%
same,percentage of patients with cancer treatment with new multifocal with increased Gleason grade in the hemi-prostate,[3]; [7],10%
same,percentage of patients with cancer treatment with new multifocal with increased Gleason grade in the hemi-prostate,[3]; [8],17.4%
same,% Imp. (cancer treatment with new multifocal with increased Gleason grade in the hemi-prostate),"[3]; FT 2.5 mg, <= 18 mos",69%
same,% Imp. (cancer treatment with new multifocal with increased Gleason grade in the hemi-prostate),"[3]; FT 2.5 mg, <= 36 mos",57.4%
same,% Imp. (cancer treatment with new multifocal with increased Gleason grade in the hemi-prostate),"[3]; FT 2.5 mg, <= 48 mos",44.4%
same,percentage of patients with cancer treatment with new multifocal with increased Gleason grade in the hemi-prostate,[3]; [9],5.1%
same,percentage of patients with cancer treatment with new multifocal with increased Gleason grade in the hemi-prostate,[3]; [10],7.1%
same,percentage of patients with cancer treatment with new multifocal with increased Gleason grade in the hemi-prostate,[3]; [11],8.3%
same,% Imp. (cancer treatment with new multifocal with increased Gleason grade in the hemi-prostate),"[3]; FT 15 mg, <= 18 mos",67.7%
same,% Imp. (cancer treatment with new multifocal with increased Gleason grade in the hemi-prostate),"[3]; FT 15 mg, <= 36 mos",69.8%
same,% Imp. (cancer treatment with new multifocal with increased Gleason grade in the hemi-prostate),"[3]; FT 15 mg, <= 48 mos",73.5%
same,percentage of patients with cancer treatment with new multifocal with increased Gleason grade in the hemi-prostate,[3]; [12],5%
same,percentage of patients with cancer treatment with new multifocal with increased Gleason grade in the hemi-prostate,[3]; [13],8.6%
same,percentage of patients with cancer treatment with new multifocal with increased Gleason grade in the hemi-prostate,[3]; [14],12.8%
same,% Imp. (cancer treatment with new multifocal with increased Gleason grade in the hemi-prostate),"[3]; Pooled FT, <= 18 mos",68.4%
same,% Imp. (cancer treatment with new multifocal with increased Gleason grade in the hemi-prostate),"[3]; Pooled FT, <= 36 mos",63.4%
same,% Imp. (cancer treatment with new multifocal with increased Gleason grade in the hemi-prostate),"[3]; Pooled FT, <= 48 mos",59.1%
same,percentage of patients with cancer treatment with new multifocal and an increase in Gleason grade primary pattern in the hemi-prostate,[4]; [6],0%
same,percentage of patients with cancer treatment with new multifocal and an increase in Gleason grade primary pattern in the hemi-prostate,[4]; [7],0%
same,percentage of patients with cancer treatment with new multifocal and an increase in Gleason grade primary pattern in the hemi-prostate,[4]; [8],0%
same,% Imp. (cancer treatment with new multifocal and an increase in Gleason grade primary pattern in the hemi-prostate),"[4]; FT 2.5 mg, <= 18 mos",100%
same,% Imp. (cancer treatment with new multifocal and an increase in Gleason grade primary pattern in the hemi-prostate),"[4]; FT 2.5 mg, <= 36 mos",100%
same,% Imp. (cancer treatment with new multifocal and an increase in Gleason grade primary pattern in the hemi-prostate),"[4]; FT 2.5 mg, <= 48 mos",100%
same,percentage of patients with cancer treatment with new multifocal and an increase in Gleason grade primary pattern in the hemi-prostate,[4]; [9],2.6%
same,percentage of patients with cancer treatment with new multifocal and an increase in Gleason grade primary pattern in the hemi-prostate,[4]; [10],3.6%
same,percentage of patients with cancer treatment with new multifocal and an increase in Gleason grade primary pattern in the hemi-prostate,[4]; [11],4.2%
same,% Imp. (cancer treatment with new multifocal and an increase in Gleason grade primary pattern in the hemi-prostate),"[4]; FT 15 mg, <= 18 mos",75.2%
same,% Imp. (cancer treatment with new multifocal and an increase in Gleason grade primary pattern in the hemi-prostate),"[4]; FT 15 mg, <= 36 mos",79.5%
same,% Imp. (cancer treatment with new multifocal and an increase in Gleason grade primary pattern in the hemi-prostate),"[4]; FT 15 mg, <= 48 mos",77.7%
same,percentage of patients with cancer treatment with new multifocal and an increase in Gleason grade primary pattern in the hemi-prostate,[4]; [12],1.3%
same,percentage of patients with cancer treatment with new multifocal and an increase in Gleason grade primary pattern in the hemi-prostate,[4]; [13],1.7%
same,percentage of patients with cancer treatment with new multifocal and an increase in Gleason grade primary pattern in the hemi-prostate,[4]; [14],2.1%
same,% Imp. (cancer treatment with new multifocal and an increase in Gleason grade primary pattern in the hemi-prostate),"[4]; Pooled FT, <= 18 mos",87.6%
same,% Imp. (cancer treatment with new multifocal and an increase in Gleason grade primary pattern in the hemi-prostate),"[4]; Pooled FT, <= 36 mos",90.3%
same,% Imp. (cancer treatment with new multifocal and an increase in Gleason grade primary pattern in the hemi-prostate),"[4]; Pooled FT, <= 48 mos",88.8%
same,"effect on BCL pathways (activation of BIK, HRK, BCL2L10 and BCL3)",[5],stimulates
same,"effect on caspase pathways (activation of caspases 7, 8, and 10, caspase recruitment domains 6, 11, and 14, and DIABLO)",[5],stimulates
same,"effect on tumor necrosis factor pathways (activation of TNF1, TNFSF6, TNFSF8, TNFSF9, CD70 ligands, and TNFRSF19L, TNFRSF25, TRAF2, TRAF3, TRAF4, TRAF6 receptors)",[5],stimulates
